In patent US20200399238A1, “THERAPEUTIC AURONES” (MIDDLE TENNESSEE STATE UNIVERSITY, priority 2016, published 2020):

Columns and labels:
IL-8 = test: Cytokine response by ELISA, IL-8; format: cell-based, human; settings: LPS-stimulated THP-1, ELISA
Description: Dexamethasone is a synthetic glucocorticoid that suppresses LPS-induced pro-inflammatory cytokine expression and was used as a control (Abraham, Lawrence et al. 2006). Supernatants were collected for human cytokine ELISAs and the manufacturer's protocol was followed to assess the cytokine response. Cells remaining after the supernatant collection were tested for relative viability by Alamar Blue cytotoxicity assay as previously described.

iNOS = test: Western blot, iNOS expression, RAW 264.7; settings: LPS-stimulated RAW264.7, 24 h
Description: (§1) U0126 is a compound that inhibits MEK1/2 and was used as positive control for ERK phosphorylation inhibition (Hotokezaka, Sakai et al. 2002). Cells were lysed with radio-immunoprecipitation assay (RIPA) lysis buffer that contained a protease and phosphatase inhibitor cocktail. Cell lysates were then tested for protein concentration using a BCA protein assay and diluted with RIPA lysis buffer to normalize protein concentration in all samples. Lysates were mixed with sample loading buffer containing bromophenol blue, glycerol, SDS, and 2-mercaptoethanol. The separated proteins were then transferred onto a nitrocellulose membrane and blocked with 5% BSA in IX Tris-buffered saline with 0.1% Tween-20 for 1 h. The blots were incubated with primary antibodies at 4° C. overnight followed by incubation with HRP-conjugated secondary antibodies for 2 h at 22° C. The membranes were developed by addition of ECL substrate and images were collected with a ChemiDoc XRS+ system chemiluminescence imager (Bio-Rad, Hercules, Calif., USA). Western blot band intensity was quantified using Image Lab software (Bio-Rad, Hercules, Calif., USA). […]

TNFα mRNA = test: Quantitative RT-PCR of TNF-α transcription, THP-1; format: cell-based, human; settings: 80 μM pre-treatment, LPS 4 h, differentiated THP-1
Description: Transcription of TNF-α (NM 000594) and beta-2-microglobin, 132M (NM 004048), in 2.5×10^5 PMA-differentiated THP1 cells was investigated in cells without treatment, stimulated with […] Salmonella LPS, or pretreated for 1 hour with 1 μM dexamethasone or 80 μM aurone 1 followed by 4 hours of incubation with 20 ng/ml LPS. Total RNA was purified after 4 hours of LPS stimulation using the Maxwell 16 LEV simplyRNA Tissue Kit (Promega, WI, USA) per manufacturer's instructions (Jeffries, Kiss et al. 2014). Total RNA concentrations and the 260/280 nm ratios of each RNA sample were assessed using a NanoDrop 2000 UV-Vis spectrophotometer (Thermo Fisher Scientific, MA, USA). SYBR® FAST One-step qRT-PCR (KAPA Biosystems, MA, USA) was used to examine gene transcription after reaction optimization.
QuantiTect® Primer Assay TNF (QT01079561) and B2M (Q300088935) primer (Qiagen, CA, USA) optimization studies, including melt curve analyses to confirm primer specificity and efficiency, were conducted to find appropriate running conditions (Fajardy, Moitrot et al. 2009). Briefly, the optimized conditions were 1 ng of total RNA added to 20 μl of reaction including 150 nM of forward and reverse primers. […] The fold change was calculated by using 2^−ΔΔct normalized to LPS alone (Schmittgen and Livak 2008).

[1] = tested on: p65-EGFP / TNFα promoter mCherry reporter; test: Live cell imaging of RAW 264.7 dual reporter cells (p65-EGFP, TNFα promoter mCherry); format: cell-based, murine; settings: 50 μM pre-treatment
Description: Cells were maintained at 37° C. with 5% CO2 in a humidified atmosphere during imaging. EGFP and mCherry fluorescence were imaged using FITC and Cy3 filters, respectively. Nikon Elements Software (Nikon. USA) was used for microscope control and image capture. Post-acquisition, images were analyzed using Fiji (Schindelin, Arganda-Carreras et al. 2012). Images were background subtracted and cytoplasmic:nuclear p65-EGFP and whole cell mCherry fluorescence were quantified for individual cells at each time point.

IKKβ, IκBα, p65 = test: Western blot, IKK / IκBα / p65 phosphorylation, RAW 264.7; settings: 12.5, 25, 50 μM, LPS 15 min, dose-dependent
Description: as §1

[2] = tested on: rat skeletal muscle cell line, L6; test: cells; format: cell-based; settings: Rattus norvegicus; Table 1; read-out: IC50 Toxicity (L6)
[3] = tested on: Cryptococcus neoformans (Cn); test: CLSI micro-dilution inhibition / MIC, Cryptococcus neoformans; format: cell-based; settings: running text b175, read-out: MIC against Cryptococcus neoformans
Description: C. neoformans (strain 1199s) was prepared following CLSI guidelines for the organism (CLSI, Reference Method for Broth Dilution Antifungal Susceptibility Testing of Yeasts, Approved Standard-Third. Edition, Clinical Laboratory Standards Institute, Wayne, Pa., 2008).
The A27-M2 CLSI standard micro-dilution method was used to screen an aurone library (MTSU Department of Chemistry) for inhibition of Cryptococcus neoformans (Cn). Each aurone was screened in triplicate. […] Toxicity assays were conducted on human THP1 macrophages and L6 rat fibroblasts.
The inhibition of Cn strains and C. gattii strains by Aurone 9051 (also referred to as “Aurone X”) was characterized in different medias (including RPMI 1640 (Standard), RPMI 1640+MOPS, Asparagine media, minimal media, or yeast extract peptone dextrose (YPD) media), against other serotypes and strains, and at different cell concentrations. Synergy of the compounds with current drugs was characterized, and a growth curve experiment was conducted.

[4] = tested on: Trypanosoma brucei brucei 427 cells; test: T. brucei culture and assay (PrestoBlue); format: cell-based; settings: Trypanosoma brucei; Table 1; mean of 2(+) independent trials; read-out: IC50 T. brucei
[5] = tested on: Leishmania amazonensis promastigotes expressing beta-lactamase; test: microbe, parasite or virus in culture; format: cell-based; settings: Leishmania amazonensis, read-out: IC50 L. amaz.

SMILES	reduction of IL-8 expression (IL-8) [%]	reduction in iNOS levels (iNOS; 50 μM) [%]	reduction in iNOS levels (iNOS; 100 μM) [%]	reduction of TNFα mRNA levels (TNFα mRNA) [%]	expression of mCherry (TNFα promoter reporter) [1]	nuclear translocation of p65-EGFP post-LPS [1]	phosphorylation of IKKβ, IκBα and p65 (IKKβ, IκBα, p65)	IC50 [2] [µM]	melting point [°C]	MIC [3] [µM]	IC50 [4] [µM]	IC50 [5] [µM]
O=C1/C(=C/c2ccc(CO)o2)Oc2ccccc21 [aurone 1]	71	31.7	57.5	49	smaller fold-change in the expression of mCherry	diminished	suppress the phosphorylation of all three proteins					
COc1ccc(/C=C2\Oc3c(ccc(O)c3O)C2=O)cc1O [Aurone 1009, (Z)-6,7-dihydroxy-2-(3-hydroxy-4-methoxybenzylidene)benzofuran-3(2H)-one]								45	275 to 280	30	18.8	9.63
